Reference: patent publication US7205119B2, “HA-1 antigen” (Rijksuniversiteit te Leiden, priority 1997, dated 2007)
Where no end group is shown, it is not given here.

How the values were obtained:
[1] = test system: recombinant HLA-A2.1 and b2-microglobulin; experiment: HLA-A2.1 peptide binding assay (inhibition of binding of fluorescent standard peptide, cell free); design: species or system human; details: for HLA-A2.1 binder class: class assigned from IC50
Method: (§1) FIG. 4a. Binding of HA-1^H and HA-1^R peptides to HLA-A2.1. The binding of HA-1^H and HA-1^R peptides were assayed for their ability to inhibit the binding of fluorescent peptide […] (SEQ ID NO: 17) to recombinant HLA-A2.1 and b2-microglobulin in a cell free peptide binding assay. One representative experiment is shown. […] (FIG. 4b.) Reconstitution assay with different concentrations of synthetic HA-1^R peptide with HA-1 specific T cells. The HA-1^R peptide was titrated and preincubated with T2 cells. Three HA-1 specific T cell clones, 5W38, 3HA15 and clone 15 were added and a 4 hr ^51Cr-release assay was performed. Background lysis of T2 by the CTL in the absence of any peptide was for 3HA15 4%, for clone 15 10% and for 5W38 2%. Positive control lysis was for 3HA15 46%, for clone 15 47% and 5W38 48%.
Reconstitution and HLA-A2.1 binding assays were performed to determine the capacity of HA-1^R peptide […] (SEQ ID NO: 5) to bind to HLA-A2.1 and to be recognized by the HA-1 specific T cell clones. […] Different concentrations of […] (SEQ ID NO: 5) were tested in a ^51Cr-release assay with three HA-1 specific T cell clones.
HLA-A2.1 peptide binding assay. A quantitative assay for HLA-A2.1 binding peptides based on the inhibition of binding of the fluorescent labeled standard peptide Hbc 18–27 F to C6 ([…]) (SEQ ID NO: 17) to recombinant HLA-A2.1 protein and B2-microglobulin was used^26,27. In short, HLA-A2.1 concentrations yielding approximately 40–60% bound fluorescent standard peptide were used with 15 pmol/well (150 nM) B2-microglobulin (Sigma). Various doses of the test peptides were coincubated with 100 fmol/well (1 nM) fluorescent standard peptide, HLA-A2.1 and B2-microglobulin for 1 day at room temperature in the dark in a volume of […] in assay.buffer. The percent of MHC-bound fluorescence was determined by gel filtration and the 50% inhibitory dose was deduced for each peptide using one-site competition non-linear regression analysis with the prismgraph software. […]

[2] = test system: HA-1 specific T cell clones 3HA15, clone 15 and 5W38 (T2 target cells); experiment: 51Cr-release reconstitution assay (CML assay) with peptide-loaded T2 cells and HA-1 specific CTL clones; type: cell-based, human
From the text: FIG. 2. Sequencing of mH HA-1 peptide by tandem mass spectrometry. (FIG. 2a.) Collision activation dissociation mass spectrum of peptide candidate with m/z of 513. (FIG. 2b.) Reconstitution assay with different concentrations of synthetic mH HA-1 peptide with three HA-1 specific T cell clones, 3HA15, clone 15 and 5W38. Background lysis of T2 by the CTL in the absence of any peptide was for 3HA15 4%, for clone 15 10% and for 5W38 2%. Positive control lysis was for 3HA15 46%, for clone 15 47% and 5W38 48%.
as §1, with “48%. […]” for “48%.”

Row | Sequence | HLA-A2.1 binder class [1] | reconstitution of the HA-1 epitope by synthetic peptide ([2]; results not shown) | fold lower binding affinity for HLA-A2.1 versus HA-1^H peptide [1] [fold] | peptide concentration needed for recognition relative to that for the HA-1^H peptide ([2]; clone 3HA15 only (one out of three clones showed recognition)) [times]
1 | VLHDDLLEA | high affinity binders | – | – | –
2 | YXTDRVMTV [peptide candidate m/z 550; X stands for Isoleucine or Leucine] | – | not able to reconstitute the HA-1 epitope | – | –
3 | VLRDDLLEA | intermediate binders | – | 10 | 1000
